{"source": "paper PMC4176394", "about": "(Journal of Natural Products, 2014)", "key": {"[1]": {"assay": "Stability in solution", "format": "physicochemical", "details": "CDCl3"}, "[2]": {"tested_on": "MDA-MB-435 (melanoma) cancer cell line", "assay": "Cytotoxicity assay, MDA-MB-435 cells", "format": "cell-based, human", "details": "for IC50: Homo sapiens, MDA-MB-435, 72 h, read-out: IC50 values, MDA-MB-435; for factor by which activity is reduced relative to compound 5: MDA-MB-435 cells, versus 5"}, "[3]": {"tested_on": "HT-29 (colon) cancer cell line", "assay": "Cytotoxicity assay, HT-29 cells", "format": "cell-based, human", "details": "for IC50: Homo sapiens, HT-29, 72 h, read-out: IC50 values, HT-29"}}, "data": [{"smiles": "COc1cc(O)c(Cl)c2c1C(=O)O[C@@H](C)CC[C@@H](O)CC/C=C/C(=O)C2", "note": "[Compound 8, greensporone D]", "values": [{"measurement": "stability in solution", "setting": "[1]", "result": "converted to 12"}]}, {"smiles": "COc1cc(O)cc2c1C(=O)O[C@@H](C)CCCCCCCC(=O)C2", "note": "[Compound 7, 8,9-dihydrogreensporone C]", "values": [{"measurement": "IC50", "setting": "[2]", "result": "> 20", "unit": "µM"}, {"measurement": "IC50", "setting": "[3]", "result": "> 20", "unit": "µM"}]}, {"smiles": "COc1cc(O)c(Cl)c2c1C(=O)O[C@@H](C)CCC(=O)CC/C=C\\C(=O)C2", "note": "[Compound 2, greensporone B]", "values": [{"measurement": "IC50", "setting": "[2]", "result": "> 20", "unit": "µM"}, {"measurement": "IC50", "setting": "[3]", "result": "> 20", "unit": "µM"}]}, {"smiles": "C[C@H]1CCCCC/C=C/C(=O)Cc2cc(O)cc(O)c2C(=O)O1", "note": "[Compound 6, O-desmethylgreensporone C]", "values": [{"measurement": "factor by which activity is reduced relative to compound 5", "setting": "[2]", "result": 5}, {"measurement": "factor by which activity is reduced relative to compound 5", "setting": "[3]; HT-29 cells, versus 5", "result": 2}]}, {"smiles": "COc1cc(O)cc2c1C(=O)O[C@@H](C)CC[C@H]1CC[C@@H](CC(=O)C2)O1", "note": "[Compound 13, dechlorogreensporone F]", "values": [{"measurement": "IC50", "setting": "[2]", "result": "> 20", "unit": "µM"}, {"measurement": "IC50", "setting": "[3]", "result": "> 20", "unit": "µM"}]}, {"smiles": "COc1cc(O)cc2c1C(=O)O[C@@H](C)CC[C@H]1CC[C@H](CC(=O)C2)O1", "note": "[Compound 14, greensporone G]", "values": [{"measurement": "IC50", "setting": "[2]", "result": "> 20", "unit": "µM"}, {"measurement": "IC50", "setting": "[3]", "result": "> 20", "unit": "µM"}]}, {"smiles": "COc1cc(O)c(Cl)c2c1C(=O)O[C@@H](C)CCC(=O)CC/C=C/C(=O)C2", "note": "[Compound 1, greensporone A]", "values": [{"measurement": "factor by which activity is reduced relative to compound 5", "setting": "[2]", "result": "~5"}]}, {"smiles": "COc1cc(O)cc2c1C(=O)O[C@@H](C)CCC(=O)CC/C=C/C(=O)C2", "note": "[Compound 4, dechlorogreensporone A]", "values": [{"measurement": "factor by which activity is reduced relative to compound 5", "setting": "[2]", "result": "~5"}]}, {"smiles": "COc1cc(O)c(Cl)c2c1C(=O)O[C@@H](C)CCC(=O)CCCCC(=O)C2", "note": "[Compound 3, 8,9-dihydrogreensporone A]", "values": [{"measurement": "IC50", "setting": "[2]", "result": "> 20", "unit": "µM"}, {"measurement": "IC50", "setting": "[3]", "result": "> 20", "unit": "µM"}]}, {"smiles": "COc1cc(O)c(Cl)c2c1C(=O)O[C@@H](C)CC[C@@H](O)CCCCC(=O)C2", "note": "[Compound 11, 8,9-dihydrogreensporone D]", "values": [{"measurement": "IC50", "setting": "[2]", "result": "> 20", "unit": "µM"}, {"measurement": "IC50", "setting": "[3]", "result": "> 20", "unit": "µM"}]}, {"smiles": "COc1cc(O)c(Cl)c2c1C(=O)O[C@@H](C)CC[C@@H](O)CC/C=C\\C(=O)C2", "note": "[Compound 9, greensporone E]", "values": [{"measurement": "IC50", "setting": "[2]", "result": "> 20", "unit": "µM"}, {"measurement": "IC50", "setting": "[3]", "result": "> 20", "unit": "µM"}]}, {"smiles": "COc1cc(O)cc2c1C(=O)O[C@@H](C)CC[C@@H](O)CC/C=C/C(=O)C2", "note": "[Compound 10, dechlorogreensporone D]", "values": [{"measurement": "factor by which activity is reduced relative to compound 5", "setting": "[2]", "result": "~4"}]}]}
